Earlier results in patent US20230083525A1, “NOVEL COMPOSITION FOR REDUCING STRESS DISORDERS” (SOCIETE DES PRODUITS NESTLE S.A., priority 2019, published 2023).

Conditions: value used to convert plasma AUC to production in the colon

systemic availability [%]	SMILES
36	CC(=O)O [acetate]
2	CCCC(=O)O [butyrate]
